Measured values taken from patent publication US20180078561A1 (LAM Therapeutics, Inc., priority 2015, published 2018).
“Also recorded” adds a separate entry of the source. Read-outs that look alike come from different tables or passages of the source. Each block holds one compound with its values, some of them ahead of it.

What was measured:
WSU-DLCL2 cells = test: anti-proliferative activity normalized to apilimod (plasma concentration factors); type: cell-based, Human; settings: data from WSU-DLCL2 cells
[1] = human plasma profile of apilimod and metabolites; type: in vivo; settings: oral 105 mg doses of apilimod free base, given 10 hr apart
cancer cell line = test: vacuolization of cells; type: cell-based; settings: for vacuolation in cells: at concentrations comparable to apilimod
From the text: PIKfyve is associated with the cytosolic leaflet of early endosomes and its activity is required for endomembrane homeostasis, endolysosomal function and proper retrograde transport from the endosome to the trans-Golgi network. Introduction of a kinase dead mutant into cells induces a swollen vacuole phenotype that can be rescued by the injection of PI(3,5)P2. Inhibition of PIKfyve by pharmacological methods as well as RNAi also produces swollen vacuoles and disruption of endomembrane dynamics.
Introduction of a kinase dead mutant into cells induces a swollen vacuole phenotype that can be rescued by the injection of PI(3,5)P2. Inhibition of PIKfyve by pharmacological methods as well as RNAi also produces swollen vacuoles and disruption of endomembrane dynamics.

PIKfyve = biological target: T1, PIKfyve (Homo sapiens, UniProt Q9Y2I7); test: dissociation constant (Kd) study; type: binding; settings: 0.05-3000 nM, duplicate
T1 construct: purchased DiscoveRx, Fremont, Calif
T1 sequence (Q9Y2I7 whole entry): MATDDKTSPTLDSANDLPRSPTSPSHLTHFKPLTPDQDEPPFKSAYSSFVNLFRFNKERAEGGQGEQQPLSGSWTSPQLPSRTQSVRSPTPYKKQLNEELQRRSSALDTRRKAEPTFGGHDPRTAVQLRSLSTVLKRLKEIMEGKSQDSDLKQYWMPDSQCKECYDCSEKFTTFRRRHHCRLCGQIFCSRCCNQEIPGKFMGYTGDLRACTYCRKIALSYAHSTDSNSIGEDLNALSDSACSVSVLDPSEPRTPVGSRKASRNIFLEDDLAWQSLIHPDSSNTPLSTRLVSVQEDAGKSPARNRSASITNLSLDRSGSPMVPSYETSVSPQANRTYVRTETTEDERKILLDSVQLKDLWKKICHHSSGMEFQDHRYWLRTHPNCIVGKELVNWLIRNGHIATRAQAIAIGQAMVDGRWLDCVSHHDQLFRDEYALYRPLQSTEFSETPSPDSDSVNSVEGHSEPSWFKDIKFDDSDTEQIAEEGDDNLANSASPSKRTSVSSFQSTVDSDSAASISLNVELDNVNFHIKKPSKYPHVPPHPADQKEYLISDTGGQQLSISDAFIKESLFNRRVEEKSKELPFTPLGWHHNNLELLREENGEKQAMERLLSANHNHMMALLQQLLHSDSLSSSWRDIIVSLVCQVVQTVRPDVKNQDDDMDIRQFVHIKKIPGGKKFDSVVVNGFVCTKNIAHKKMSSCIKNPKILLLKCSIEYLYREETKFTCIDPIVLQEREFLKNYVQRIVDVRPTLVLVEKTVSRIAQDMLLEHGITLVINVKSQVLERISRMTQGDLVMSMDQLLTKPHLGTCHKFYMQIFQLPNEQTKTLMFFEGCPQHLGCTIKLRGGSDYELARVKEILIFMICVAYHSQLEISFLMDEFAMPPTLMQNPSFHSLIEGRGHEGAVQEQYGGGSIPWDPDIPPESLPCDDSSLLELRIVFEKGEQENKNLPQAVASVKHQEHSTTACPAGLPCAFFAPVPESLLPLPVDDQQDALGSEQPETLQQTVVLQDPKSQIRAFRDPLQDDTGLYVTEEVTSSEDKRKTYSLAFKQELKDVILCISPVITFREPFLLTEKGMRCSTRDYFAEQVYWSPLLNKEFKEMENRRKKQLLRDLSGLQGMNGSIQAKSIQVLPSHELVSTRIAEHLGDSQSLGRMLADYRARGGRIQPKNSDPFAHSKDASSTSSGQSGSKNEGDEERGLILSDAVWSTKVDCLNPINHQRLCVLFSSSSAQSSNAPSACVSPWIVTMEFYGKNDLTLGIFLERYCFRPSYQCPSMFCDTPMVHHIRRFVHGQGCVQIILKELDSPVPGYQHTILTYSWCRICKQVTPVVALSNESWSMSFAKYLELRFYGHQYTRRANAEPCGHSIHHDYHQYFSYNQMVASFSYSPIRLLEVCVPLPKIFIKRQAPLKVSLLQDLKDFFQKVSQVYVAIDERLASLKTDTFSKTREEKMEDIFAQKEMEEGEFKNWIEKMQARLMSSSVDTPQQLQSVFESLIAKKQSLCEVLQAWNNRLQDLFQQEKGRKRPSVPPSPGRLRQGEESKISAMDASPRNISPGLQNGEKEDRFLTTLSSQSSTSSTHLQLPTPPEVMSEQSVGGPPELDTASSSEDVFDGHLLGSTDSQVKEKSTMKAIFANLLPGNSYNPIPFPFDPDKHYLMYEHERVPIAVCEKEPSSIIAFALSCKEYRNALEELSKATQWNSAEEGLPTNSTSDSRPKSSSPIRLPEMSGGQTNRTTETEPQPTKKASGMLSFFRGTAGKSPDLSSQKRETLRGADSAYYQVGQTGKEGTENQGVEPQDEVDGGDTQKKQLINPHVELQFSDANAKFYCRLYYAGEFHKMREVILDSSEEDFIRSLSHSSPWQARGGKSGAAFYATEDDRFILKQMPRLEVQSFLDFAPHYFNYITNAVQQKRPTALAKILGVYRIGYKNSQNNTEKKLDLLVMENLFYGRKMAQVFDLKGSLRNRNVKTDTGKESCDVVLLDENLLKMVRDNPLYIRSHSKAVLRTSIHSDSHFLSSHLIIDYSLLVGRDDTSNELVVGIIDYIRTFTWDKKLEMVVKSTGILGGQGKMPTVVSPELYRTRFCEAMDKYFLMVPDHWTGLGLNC
Method: A dissociation constant (Kd) study was performed using the 3 compounds at increasing concentrations (0.05-3000 nM) against PIKfyve.

plasma protein binding [2] = type: in vitro ADME; settings: dog plasma proteins
plasma protein binding [3] = type: in vitro ADME; settings: human plasma proteins
plasma protein binding [4] = type: in vitro ADME; settings: rat plasma proteins
[5] = system: 122 human cancer cell lines; test: cancer cell line screen for sensitivity to apilimod; type: cell-based; settings: sensitive if IC50 less than 500 nM
From the text: (§1) 35 cell lines were identified as sensitive to apilimod-induced cytotoxicity.
The most sensitive of those tested were non-Hodgkin's Lymphoma (NHL) cell lines. […] NHL represents a diverse group of hematopoietic malignancies that vary in severity, with subtypes ranging from slow growing to aggressive. Subtypes of NHL include diffuse large B cell lymphoma (DLBCL), Burkitt's lymphoma, mantle lymphoma, and follicular B cell lymphoma. DLBCL is divided into two subtypes, GCB and ABC, based on gene expression and cell of origin. The GCB are germinal center B cell type, arising from normal germinal center B cells, and the ABC are activated B cell type, arising from post-germinal center B cells in the process of differentiating into plasma cells.

U937 = settings: WO 2006/128129; cited from earlier work
SUDHL-4 cells = test: drug library screen with and without apilimod, cell viability; type: cell-based; settings: Homo sapiens, SU-DHL-4
From the text: A manually curated library of 93 drugs including both FDA approved and unapproved drugs was used in the screen.
Ibrutinib is an FDA-approved drug targeting B-cell malignancies and indicated for monotherapy in treating mantle cell lymphoma and chronic lymphocytic leukemia. It is also known as PCI-32765 and marketed under the trade name Imbruvica™. […] BTK is a key mediator of at least three critical B-cell pro-survival mechanisms occurring in parallel-regulation of apoptosis, cell adhesion and cell migration and homing.

Yulac614 melanoma cells = test: drug combination screen and validation, cell viability
(TSC2−/−, p53−/−) MEF = test: 10-point dose response, cell viability (CellTiter-Glo); type: cell-based; settings: Mus musculus; cell type MEF TSC2 −/− p53 −/−; 72 h; average of two experiments
[6] = system: diffuse large B cell lymphoma cells; test: Apotox-Glo Triplex assay; type: cell-based; settings: 48 hours after addition
Method: Apoptosis was quantified and distinguished from necrosis using the Apotox-Glo Triplex assay (Promega, Inc.) according to the manufacturer's instructions. In this assay, viability, apoptosis, and necrosis are assessed simultaneously using three different markers (GF-AFC, Caspase-3/7, and bis-AAF-R110, respectively).

H4 = test: cell viability (CellTiterGlo), apilimod sensitivity; type: cell-based; settings: Homo sapiens, Human neuroglioma
From the text: as §1

HELA = settings: WO 2006/128129; cited from earlier work
[7] = for Apilimod Ave. Plasma Conc.: Day 7; for sustained blood concentration of apilimod: measured at 24 h
[8] = system: peripheral blood mononuclear cells; settings: Wada et al., Blood 109, 2007; cited from earlier work
Normal lung fibroblasts = test: cytotoxicity on normal cells; type: cell-based; settings: concentrations as high as 10 micromolar
From the text: as §1

ELT3-EV = test: 10-point dose response, cell viability (CellTiter-Glo); type: cell-based; settings: Rattus norvegicus; cell type ELT3 (ELT3-EV); 72 h; average of two experiments; read-out: IC50 TSC2 −/−
[9] = system: TRI-AML102 (TSC2 null AML); test: as above; type: cell-based; settings: Homo sapiens; cell type AML (head: AML TSC2 +/− p53 −/−); 72 h; average of two experiments
MEF-EV (TSC2−/− MEF) = test: as above; type: cell-based; settings: Mus musculus; cell type MEF TSC2 −/− (MEF-EV); 72 h; average of two experiments
From the text: TSC2 null cells have constitutively active mTOR. Briefly, MEF cells derived from TSC2−/− knockout mouse embryos (Onda et al., J. Clin. Invest. 104(6):687-95, 1999) were infected with a retrovirus vector encoding the hygromycin antibiotic resistance gene (MEF-EV) or the same retrovirus vector also encoding TSC2 (MEF-TSC2). The MEF-EV and MEF-TSC2 line were then established by hygromycin selection.
See e.g., Zhang et al. J. Clin. Invest. 112, 1223-33, 2003. (2) ELT3-EV and ELT3-TSC2 lines were established from the ELT3 rat tumor cell line. The ELT3 line is an established rat tumor model for LAM/TSC. See e.g., Howe et al., Am. J. Path. 146, 1568-79, 1995. These cells harbor an inactivating mutation in TSC2, which leads to constitutive activation of the mTOR pathway. To develop an isogenic pair of cells ELT3 cells were infected with a retrovirus vector encoding the hygromycin antibiotic resistance gene (ELT3-EV) or the same retrovirus vector also encoding TSC2 (ELT3-TSC2). The ELT3-EV and ELT3-TSC2 line were then established by hygromycin selection. […] The cells were infected with amphotropic retrovirus LXSN16E6E7 that encodes the HPV16 E6 and E7 open reading frames and neomycin resistance cassette. […]
IC50 values were then calculated from the dose response curves using XLFIT (IDBS).

THP-1 = settings: WO 2006/128129; cited from earlier work
H4 neuroglioma cell line = test: Cyto-ID Autophagy detection; type: cell-based, Human; settings: 72 hours of treatment
From the text: Autophagy was quantified using the Cyto-ID Autophagy detection kit (Enzo) according to manufacturer's directions.

Jurkat = settings: WO 2006/128129; cited from earlier work

SMILES: Cc1cccc(/C=N/Nc2cc(N3CCOCC3)nc(OCCc3ccccn3)n2)c1 [apilimod free base]
fraction unbound (plasma protein binding [2]): < 0.01 | fraction unbound (plasma protein binding [3]): < 0.01 | fraction unbound (plasma protein binding [4]): < 0.01

SMILES: Cc1cccc(/C=N/Nc2cc(N3CCOCC3)nc(OCCc3ccccn3)n2)c1 [apilimod]
NHL cell lines tested that were sensitive to apilimod ([5]; non-Hodgkin's Lymphoma cell lines): over 50% | cell lines identified as sensitive to apilimod-induced cytotoxicity ([5]; of 122 human cancer cell lines): 35 cell lines | cytotoxicity (U937): not cytotoxic | apilimod concentration at which vacuole formation in cells was observed (cancer cell line; as low as): 20 nM | vacuolization (cancer cell line; live cells, 500 nM, 24 h): induces vacuolization | IC20 (SUDHL-4 cells): 10 nM | IC20 (Yulac614 melanoma cells): 500 nM | IC50 ((TSC2−/−, p53−/−) MEF): 28.8 nM | apoptosis (Caspase-3/7 marker) [6]: increased apoptosis | IC50 (H4): 250 to 300 nM | cytotoxicity (HELA): not cytotoxic | Apilimod Ave. Plasma Conc. ([7]; Group 3: S.C. pump ~15 mg/kg/d (DRW) + I.P. 30 mg/kg (MC)): 0.682 µM | Apilimod Ave. Plasma Conc. ([7]; Group 7: S.C. pump ~15 mg/kg/d (DRW) + I.P. 30 mg/kg (DRD)): 0.613 µM | Apilimod Ave. Plasma Conc. ([7]; Group 8: S.C. pump ~30 mg/kg/d (DRW) + I.P. 30 mg/kg (DRD)): 1.76 µM | Apilimod Ave. Plasma Conc. ([7]; Group 9: S.C. pump ~15 mg/kg/d (DRW) only): 0.755 µM | Apilimod Ave. Plasma Conc. ([7]; Group 10: S.C. pump ~30 mg/kg/d (DRW) only): 1.87 µM | sustained blood concentration of apilimod ([7]; S.C. osmotic mini-pump 15 mg/kg/day (bis-mesylate salt)): > 0.5 µM | sustained blood concentration of apilimod ([7]; S.C. osmotic mini-pump 30 mg/kg/day (bis-mesylate salt)): > 1 µM | cytotoxicity [8]: not cytotoxic | apilimod-induced cytotoxicity (Normal lung fibroblasts): not cytotoxic; also recorded: insensitive | IC50 (ELT3-EV): 13.7 nM | IC50 [9]: 117 nM | IC50 (MEF-EV (TSC2−/− MEF)): 19.7 nM | cytotoxicity (THP-1): not cytotoxic | autophagy (autophagic vacuoles) (H4 neuroglioma cell line): induced autophagy in a dose-dependent manner | cytotoxicity (Jurkat): not cytotoxic

Continued, in another order:

mean Cmax relative to apilimod [1]: somewhat less than half | Kd (PIKfyve): 0.09 nM
SMILES: Cc1cccc(/C=N/Nc2cc(N3CCOCC3)nc(OCC(O)c3ccccn3)n2)c1 (stereo not shown) [STA-5908]
plasma concentration factor (for Apilimod Equivalent Concentrations) (WSU-DLCL2 cells): 0.68 | vacuolation in cells (cancer cell line): cause vacuolation in cells at comparable concentrations

mean Cmax relative to apilimod [1]: somewhat less than half | Kd (PIKfyve): 0.061 nM
SMILES: Cc1cccc(/C=N/Nc2cc(N3CCOCC3)nc(OCCc3cccc[n+]3[O-])n2)c1 [STA-5944]
plasma concentration factor (for Apilimod Equivalent Concentrations) (WSU-DLCL2 cells): 0.52 | vacuolation in cells (cancer cell line): cause vacuolation in cells at comparable concentrations

Kd (PIKfyve): 0.088 nM
SMILES: Cc1cccc(/C=N/Nc2cc(N3CCOCC3)nc(OCC(O)c3cccc[n+]3[O-])n2)c1 (stereo not shown) [STA-6048]
plasma concentration factor (for Apilimod Equivalent Concentrations) (WSU-DLCL2 cells): 0.26 | vacuolation in cells (cancer cell line): cause vacuolation in cells at comparable concentrations
